From patent US9012446B2, “Amino-oxazines and amino-dihydrothiazine compounds as beta-secretase modulators and methods of use” (Amgen Inc., priority 2010, dated 2015) come the findings set out here.

“And” between values parts separate entries of the source, which are not always exact repeats. Equal values may be shown once. Read-outs that look alike come from different tables or passages of the source.

The subject of test [1] is Aβ40. Kind of test: In vitro BACE cell-based assay (Aβ40 sandwich ELISA, cells stably expressing APP). As to the method: In Vitro BACE Cell-Based Assay […] Cells stably expressing Amyloid Precursor Protein (APP) were plated at a density of 40K cells/well in 96 well plates (Costar). The cells were cultivated for 24 hours at 37° C. and 5% CO2 in DMEM supplemented with 10% FBS. The test compounds were then added to cells in 10-point dose response concentrations with the starting concentration being either 100 μM or 10 μM. The compounds were diluted from stock solutions in DMSO and the final DMSO concentration of the test compounds on cells was 0.1%. […] The IC50 of the compound was calculated from the percent of control or percent inhibition of Aβ40 as a function of the concentration of the test compound. The sandwich ELISA to detect Aβ40 was performed in 96 well microtiter plates, which were pre-treated with goat anti-rabbit IgG (Pierce). […] The optimal concentration for the pAb40 antibody was 3 μg/ml in Superblock/TBS (Pierce) that was supplemented with 0.05% Tween 20 (Sigma). […] Cellular supernatants were incubated with the capture antibody for 3 h at 4° C., followed by 3 wash steps in TBS-tween (0.05%). The detecting antibody incubation was for 2 h at 4° C., again followed by the wash steps as described previously. The final readout of the ELISA is Time-Resolved Fluorescence (counts per minute) using Delfia reagents Streptavidin-Europium and Enhancement solutions (Perkin Elmer) and the Victor 2 multilabel counter (Perkin Elmer).
A general note: ELISA stands for enzyme-linked immunosorbent assay.

In test [2] the target is BACE (Homo sapiens, UniProt P56817). Description: In vitro enzymatic BACE FRET assay. The test is classed as biochemical. As to conditions: average IC50, enzyme assay; read-out: BACE 1 FRET assay. As to the method: In Vitro Enzymatic BACE FRET (Fluorescence Resonance Energy Transfer) Assay (Enzyme Assay Data in the Example Table I) The assay buffer used in this screen is 0.05 M acetate, pH 4.2, 10% DMSO final, 100 uM genapol (which is a nonionic detergent, below its Critical Micelle Concentration). The beta secretase enzyme (0.2 nM) is pre-incubated for one hour with inhibitors, typically in about 1 uL of DMSO according to a serial dilution, are added thereto. This assay is effectively started by the addition of FRET substrate (50 nM) and the combination is incubated for one hour. The FRET assay is terminated with by addition of Tris buffer, which raises the pH to neutrality, and the fluorescence is determined. The FRET substrate is a peptide with commercially available fluorophore and quencher, on opposite sides of the BACE cleavage site. Proteolytic cleavage of the FRET substrate releases quenching of fluorescence (excitation 488 nm and emission […]).
Sequence of BACE (P56817 46-501, species assumed): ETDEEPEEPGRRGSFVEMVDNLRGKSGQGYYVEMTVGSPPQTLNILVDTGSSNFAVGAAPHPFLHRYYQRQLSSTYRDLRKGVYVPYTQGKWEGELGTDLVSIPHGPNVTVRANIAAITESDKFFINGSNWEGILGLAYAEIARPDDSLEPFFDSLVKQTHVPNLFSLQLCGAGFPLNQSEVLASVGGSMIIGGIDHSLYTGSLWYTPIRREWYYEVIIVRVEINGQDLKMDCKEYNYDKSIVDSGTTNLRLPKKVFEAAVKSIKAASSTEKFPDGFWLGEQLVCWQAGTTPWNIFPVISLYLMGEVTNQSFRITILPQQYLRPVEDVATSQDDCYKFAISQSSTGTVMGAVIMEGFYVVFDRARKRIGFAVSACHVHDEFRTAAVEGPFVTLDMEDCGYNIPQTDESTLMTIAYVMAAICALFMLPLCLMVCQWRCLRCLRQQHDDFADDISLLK

[3] abbreviates: Homo sapiens, HEK293, average IC50, read-out: HEK cell assay.
The mark [4] stands for this setting: Homo sapiens, HEK293, average IC50, cell assay, HEK cells.

On to `COc1cc2c(cn1)Oc1ccc(-c3ccc(F)c(F)c3)cc1[C@@]21COCC(N)=N1` [Example 50, (S)-7-(3,4-difluorophenyl)-3-methoxy-2′,6′-dihydrospiro[chromeno[2,3-c]pyridine-5,3′-[1,4]oxazin]-5′-amine], for which the IC50 in test [1] (setting [3]) was 106 nM; in test [2] it was 30.9 nM.

Take `CC(C)(C)C#Cc1cnc2c(c1)[C@]1(COCC(N)=N1)c1cc(-c3cccnc3)ccc1O2` [Example 52, (S)-3-(3,3-dimethylbut-1-ynyl)-7-(pyridin-3-yl)-2′,6′-dihydrospiro[chromeno[2,3-b]pyridine-5,3′-[1,4]oxazin]-5′-amine]: the IC50 was determined as 0.3 nM in test [1] (setting [3]) and 0.4 nM in test [2].

As to `CC(C)(C)C#Cc1ccc2c(c1)[C@@]1(COCC(N)=N1)c1cc(C#CC(C)(C)C)cnc1O2` [Example 53, (S)-3,7-bis(3,3-dimethylbut-1-ynyl)-2′,6′-dihydrospiro[chromeno[2,3-b]pyridine-5,3′-[1,4]oxazin]-5′-amine], the IC50 in test [1] (setting [3]) was found to be 25.1 nM; in test [2], 5.4 nM.

As for `NC1=N[C@@]2(COC1)c1cc(-c3cccnc3F)ccc1Oc1c2cc(N2CCOCC2)nc1F` [Example 58, (S)-1-fluoro-7-(2-fluoropyridin-3-yl)-3-morpholino-2′,6′-dihydrospiro[chromeno[2,3-c]pyridine-5,3′-[1,4]oxazin]-5′-amine 2,2,2-trifluoroacetate], the IC50 was found to be 0.7 nM in test [1] (setting [3]) and 0.5 nM in test [2].

For the compound `CC(C)(C)COc1cc2c(c(F)n1)Oc1ccc(-c3cccnc3F)cc1[C@]21COCC(N)=N1` [Example 59B, (R)-1-fluoro-7-(2-fluoropyridin-3-yl)-3-(neopentyloxy)-2′,6′-dihydrospiro[chromeno[2,3-c]pyridine-5,3′-[1,4]oxazin]-5′-amine], the IC50 in test [1] (setting [3]) is 370 nM; in test [2], 84.9 nM.

As for `CC(C)(C)COc1cnc2c(c1)[C@]1(CCOC(N)=N1)c1cc(-c3cccnc3F)ccc1O2` [Example 62, (S)-7-(2-fluoropyridin-3-yl)-3-(neopentyloxy)-5′,6′-dihydrospiro[chromeno[2,3-b]pyridine-5,4′-[1,3]oxazin]-2′-amine], the IC50 in test [1] (setting [3]) amounted to 4.8 nM; in test [2], 2.5 nM.

Consider `CC#Cc1cncc(-c2ccc3c(c2)[C@@]2(COCC(N)=N2)c2cc(C4=CCCOC4)cc(F)c2O3)c1` [Example 66, (S)-2′-(5,6-dihydro-2H-pyran-3-yl)-4′-fluoro-7′-(5-(prop-1-ynyl)pyridin-3-yl)-2,6-dihydrospiro[[1,4]oxazine-3,9′-xanthen]-5-amine], for which the IC50 in test [1] (setting [4]) turned out to be 1.5 nM; in test [2], 0.5 nM.

Take `CC(C)(C)COc1ccc2c(c1)[C@]1(COCC(N)=N1)c1cc(-c3cccnc3F)ccc1O2` [Example 67, (3S)-2′-(2,2-dimethylpropoxy)-7′-(2-fluoro-3-pyridinyl)-6H-spiro[1,4-oxazine-3,9′-xanthen]-5-amine]: the IC50 is 15.5 nM in test [1] (setting [4]); 13.1 nM in test [1] (setting [3]); 2 nM and 0.7 nM in test [2].

For the compound `NC1=N[C@@]2(COC1)c1cc(-c3cccnc3F)ccc1Oc1ncc(N3CC[C@@H](F)C3)cc12` [Example 68, (S)-7-(2-fluoropyridin-3-yl)-3-((R)-3-fluoropyrrolidin-1-yl)-2′,6′-dihydrospiro[chromeno[2,3-b]pyridine-5,3′-[1,4]oxazin]-5′-amine], the IC50 was 1.2 nM in test [1] (setting [4]) and 1.4 nM in test [2].

`CC(C)(F)COc1cc(F)c2c(c1)[C@]1(CCSC(N)=N1)c1cc(-c3cccnc3F)ccc1O2` [Example 204, (S)-4′-fluoro-2′-(2-fluoro-2-methylpropoxy)-7′-(2-fluoropyridin-3-yl)-5,6-dihydrospiro[[1,3]thiazine-4,9′-xanthen]-2-amine]: the IC50 in test [1] (setting [3]) is 11.2 nM; in test [2] it was 2.8 nM.

Turning to `NC1=N[C@@]2(CCO1)c1cc(-c3cccnc3F)ccc1Oc1c2cc(-c2cccnc2)nc1F` [Example 241, (S)-1-fluoro-7-(2-fluoropyridin-3-yl)-3-(pyridin-3-yl)-5′,6′-dihydrospiro[chromeno[2,3-c]pyridine-5,4′-[1,3]oxazin]-2′-amine], the IC50 in test [1] (setting [3]) came out at 0.9 nM; in test [2] it was 0.6 nM.

Turning to `NC1=N[C@]2(COC1)c1cc(-c3cccnc3F)ccc1Oc1cnc(-c3ccnc(F)c3)cc12` [compound 70], the IC50 in test [1] (setting [4]) was 268 nM; in test [2], 52.4 nM.

As for `NC1=N[C@@]2(COC1)c1cc(-c3cccnc3F)ccc1Oc1cnc(C3=CCOCC3)cc12` [compound 71], the IC50 is 1.2 nM in test [1] (setting [4]) and 0.4 nM in test [2].

Turning to `CC#Cc1cncc(-c2ccc3c(c2)[C@@]2(COCC(N)=N2)c2cc(-c4ccnc(F)c4)ncc2O3)c1` [compound 75], the IC50 turned out to be 2.8 nM in test [1] (setting [4]) and 0.5 nM in test [2].

For `NC1=N[C@@]2(COC1)c1cc(-c3cncnc3)ccc1Oc1cnc(-c3ccnc(F)c3)cc12` [compound 78], the IC50 stood at 1.1 nM in test [1] (setting [4]) and 0.5 nM in test [2].

In the case of `NC1=N[C@@]2(COC1)c1cc(-c3cncnc3)ccc1Oc1cnc(-c3ccc(F)c(F)c3)cc12` [compound 79], the results for the IC50 in test [1] (setting [4]) and in test [2] were 0.8 nM and 0.3 nM, respectively.

As to `NC1=N[C@@]2(COC1)c1cc(-c3cccnc3F)ccc1Oc1cnc([C@H]3CCCOC3)cc12` [compound 80], the IC50 stood at 5.8 nM in test [1] (setting [4]) and 3.9 nM in test [2].

In the case of `NC1=N[C@@]2(COC1)c1cc(-c3cccnc3F)ccc1Oc1cnc([C@@H]3CCCOC3)cc12` [compound 81], the IC50 in test [1] (setting [4]) turned out to be 4.1 nM; in test [2] it was 3.7 nM.

For `CC1(COc2cc(F)c3c(c2)[C@@]2(COCC(N)=N2)c2cc(-c4cccnc4F)ccc2O3)COC1` [compound 82], the IC50 in test [1] (setting [4]) stood at 121 nM; in test [2] it was 43 nM.

Turning to `CC1(COc2cc(F)c3c(c2)[C@]2(COCC(N)=N2)c2cc(-c4cccnc4F)ccc2O3)COC1` [compound 83], the IC50 in test [1] (setting [4]) and in test [2] was 0.4 nM in each case.

Take `NC1=N[C@@]2(COC1)c1cc(-c3cccnc3F)ccc1Oc1c(F)cc(N3CC[C@@H](F)C3)cc12` [compound 85]: the IC50 in test [1] (setting [4]) turned out to be 101 nM; in test [2], 39.7 nM.

Take `CC1(C#Cc2cnc3c(c2)[C@]2(COCC(N)=N2)c2cc(-c4cccnc4F)ccc2O3)COC1` [compound 87]: the IC50 in test [1] (setting [4]) stood at 1.3 nM; in test [2] it was 2 nM.

On to `CC1(C#Cc2cnc3c(c2)[C@@]2(COCC(N)=N2)c2cc(-c4cccnc4F)ccc2O3)COC1` [compound 88], for which the IC50 was 198 nM in test [1] (setting [4]) and 332 nM in test [2].

In the case of `NC1=N[C@@]2(COC1)c1cc(-c3cc(Cl)ccc3F)ccc1Oc1ncc(N3CC[C@@H](F)C3)cc12` [compound 92], the values for the IC50 in test [1] (setting [4]) and in test [2] were 1.9 nM and 0.6 nM, respectively.

As for `NC1=N[C@@]2(COC1)c1cc(-c3cc(Cl)ccc3F)ccc1Oc1ncc(N3CCOCC3)cc12` [compound 93], the IC50 came to 3.9 nM in test [1] (setting [4]) and 0.7 nM in test [2].

As for `NC1=N[C@@]2(COC1)c1cc(-c3cc(Cl)ccc3F)ccc1Oc1ncc(N3CC4CCC(C3)O4)cc12` [compound 94], the IC50 in test [1] (setting [4]) and in test [2] was 1.3 nM each time.

On to `CC1(C#Cc2cnc3c(c2)[C@]2(COCC(N)=N2)c2cc(-c4cc(Cl)ccc4F)ccc2O3)COC1` [compound 95], for which the IC50 worked out at 1.2 nM in test [1] (setting [4]) and 0.5 nM in test [2].

In the case of `CC(C)(C)C#Cc1cnc2c(c1)[C@]1(COCC(N)=N1)c1cc(-c3cncnc3)c(F)cc1O2` [compound 96], the IC50 in test [1] (setting [4]) turned out to be 0.6 nM; in test [2] it was 1.2 nM.

Consider `CC(C)(C)C#Cc1cnc2c(c1)[C@@]1(COCC(N)=N1)c1cc(-c3cncnc3)c(F)cc1O2` [compound 97], for which the IC50 was 273 nM in test [1] (setting [4]) and 419 nM in test [2].

As to `NC1=NC2(CCS1)c1cc(-c3cncnc3)ccc1Oc1ccc(-c3cncnc3)cc12` [compound 98], the IC50 in test [1] (setting [4]) stood at 635 nM; in test [2], 257 nM.

With `NC1=NC2(CCS1)c1cc(-c3cccnc3)ccc1Oc1ccc(-c3cccnc3)cc12` [compound 99], the IC50 in test [1] (setting [4]) is 118 nM; in test [2], 81.8 nM.

As for `NC1=N[C@]2(CCO1)c1cc(-c3cccnc3F)ccc1Oc1cnc(-c3cccnc3F)cc12` [compound 100], the IC50 in test [1] (average IC50, cell assay, HEK cells) was 184 nM; in test [2] it was 49.6 nM.

As to `NC1=NC2(CCO1)c1cc(-c3cccnc3F)ccc1Oc1c2cc(-c2cccnc2F)nc1F` (stereo not drawn) [compound 101], the IC50 was 45.9 nM in test [1] (setting [4]) and 14.6 nM in test [2].

Turning to `NC1=N[C@]2(CCO1)c1cc(-c3cccnc3F)ccc1Oc1c2cc(-c2cccnc2F)nc1F` [compound 104], the IC50 was found to be 1900 nM in test [1] (setting [4]) and 1740 nM in test [2].
